Structures are written as SMILES. Some results are limits rather than exact numbers.

This assay relates to human monocytic cell line U937. The assay can be described thus: Human U937 cellular necroptosis assay. The following applies: U-937; U937 cells stimulated with 25 ng/mL human TNFalpha and 25 μM z-VAD-FMK; 22 hr; viability by Cell Titer-Glo 2.0; read-out: hU937 IC50. It counts as cell-based. On the procedure:
Human U937 Cellular Necroptosis Assay
The human monocytic cell line U937 (CRL-1593.2) may be purchased from ATCC. The cells are routinely maintained in RPMI-1640 Medium (Gibco, Catalog #11875-093) supplemented with 10% heat inactivated fetal bovine serum (Gibco, Catalog #16140-071), 100 units/mL penicillin and 100 μg/mL streptomycin (Gibco, Catalog #15140-122), in a humidified incubator (37° C., 5% CO2). For the assay, cells are resuspended in RPMI-1640 phenol red free Media (Gibco, Catalog #11835-030) supplemented with 10% fetal bovine serum (Sigma, Catalog #F2442), 100 units/mL penicillin and 100 ug/mL streptomycin. Cells are stimulated with 25 ng/mL human TNFalpha (Cell Sciences, Catalog #CSI15659B) and 25 μM z-VAD-FMK (R&D Systems, Catalog #FMK001) followed by seeding 5000 cells per well in a volume of 40 μL to a white, CulturPlate-384 (Perkin Elmer, Catalog #6007680). Stock solutions of the test compounds are prepared in 100% DMSO (Sigma, Catalog #D2650) and serially diluted 1:3 using 100% DMSO. Compounds are additionally diluted 1:40 in assay medium, and 10 μL/well was transferred to the plate. Following the compound addition, the plate is incubated at 37° C. and 5% CO2 for 22 hr. After 22 hr, viability is assessed with the addition of 20 μL of Cell Titer-Glo 2.0 (Promega, Catalog #G9243). The tissue culture plate is shaken on an orbital shaker at 300 RPM for 15 minutes at room temperature in the dark. Luminescence is measured using a PerkinElmer Envision™ plate reader. IC50 values are calculated using a four-parameter logistic curve fit using Genedata Screener software. Compounds disclosed herein are expected to have activity in this assay.
As usually defined, the IC50 is the concentration at which inhibition is half-maximal. For the compound `Cc1ccc(-c2nc(C(=O)N[C@H]3COc4cc(C#N)ccc4N(C)C3=O)ncc2C)c(F)c1` [Example 30, (S)-N-(8-cyano-5-methyl-4-oxo-2,3,4,5-tetrahydro-benzo[b][1,4]oxazepin-3-yl)-4-(2-fluoro-4-methylphenyl)-5-methylpyrimidine-2-carboxamide], the half-inhibitory concentration (IC50) is 32.3 nM. Consider `Cc1cnc(C(=O)N[C@H]2COc3cc(C#N)ccc3N(C)C2=O)nc1N1CCN(C)CC1` [Example 31, (S)-N-(8-cyano-5-methyl-4-oxo-2,3,4,5-tetrahydro-benzo[b][1,4]oxazepin-3-yl)-5-methyl-4-(4-methylpiperazin-1-yl)pyrimidine-2-carboxamide], for which the half-inhibitory concentration (IC50) is no less than 10000 nM.

Consider `Cc1cnc(C(=O)N[C@H]2COc3cc(C#N)ccc3N(C)C2=O)nc1N1CC(F)(F)C1` [Example 32, (S)-N-(8-cyano-5-methyl-4-oxo-2,3,4,5-tetrahydro-benzo[b][1,4]oxazepin-3-yl)-4-(3,3-difluoroazetidin-1-yl)-5-methylpyrimidine-2-carboxamide], for which the half-inhibitory concentration (IC50) is 1120 nM. Regarding `Cc1ccc(C(=O)N[C@H]2COc3cc(C#N)ccc3N(C)C2=O)nc1Br` [Example 33, (S)-6-bromo-N-(8-cyano-5-methyl-4-oxo-2,3,4,5-tetrahydro-benzo[b][1,4]oxazepin-3-yl)-5-methylpicolinamide], the half-maximal inhibitory concentration (IC50) was no less than 10000 nM. Consider `Cc1ccc(C(=O)Nc2cccc(Cl)c2F)nc1-c1ccccc1` [Example 34, N-(3-chloro-2-fluorophenyl)-5-methyl-6-phenylpicolinamide], for which the IC50 is no less than 10000 nM. For `Cc1ccc(C(=O)Nc2cccc(Cl)c2F)nc1-c1cc(F)ccc1F` [Example 35, N-(3-chloro-2-fluorophenyl)-6-(2,5-difluorophenyl)-5-methylpicolinamide], the IC50 was no less than 10000 nM. Consider `Cc1ccc(C(=O)N[C@H]2COc3cc(C#N)ccc3N(C)C2=O)nc1-c1ccc(F)cc1` [Example 36, (S)-N-(8-cyano-5-methyl-4-oxo-2,3,4,5-tetrahydro-benzo[b][1,4]oxazepin-3-yl)-6-(4-fluorophenyl)-5-methyl-picolinamide], for which the IC50 amounted to 260 nM. As for `CN1C(=O)[C@@H](NC(=O)c2ccc(Cl)c(-c3ccc(F)cc3)n2)COc2cc(C#N)ccc21` [Example 37, (S)-5-chloro-N-(8-cyano-5-methyl-4-oxo-2,3,4,5-tetrahydro-benzo[b][1,4]oxazepin-3-yl)-6-(4-fluorophenyl)picolinamide], the IC50 was determined as 1560 nM. For `Cc1cnc(C(=O)N[C@H]2COc3cc(C#N)ccc3N(C)C2=O)nc1-c1ccc(F)cc1F` [Example 38, (S)-N-(8-cyano-5-methyl-4-oxo-2,3,4,5-tetrahydro-benzo[b][1,4]oxazepin-3-yl)-4-(2,4-difluorophenyl)-5-methyl-pyrimidine-2-carboxamide], the concentration for half-maximal inhibition (IC50) turned out to be 18.9 nM.

As to `Cc1cnc(C(=O)N[C@H]2COc3ccc(CN4CCn5ncnc5C4)cc3N(C)C2=O)nc1-c1ccccc1` [Example 39, (S)-N-(7-((5,6-dihydro-[1,2,4]triazolo[1,5-a]pyrazin-7(8H)-yl)methyl)-5-methyl-4-oxo-2,3,4,5-tetrahydro-benzo[b][1,4]oxazepin-3-yl)-5-methyl-4-phenylpyrimidine-2-carboxamide], the IC50 turned out to be 12.9 nM. In the case of `Cc1ccc(C(=O)N[C@H]2COc3cc(C#N)ccc3N(C)C2=O)nc1-c1ccccc1` [Example 40, (S)-N-(8-cyano-5-methyl-4-oxo-2,3,4,5-tetrahydro-benzo[b][1,4]oxazepin-3-yl)-5-methyl-6-phenylpicolinamide], the IC50 is 1570 nM.

Turning to `Cc1ccc(C(=O)N[C@H]2COc3cc(C#N)ccc3N(C)C2=O)nc1-c1cc(F)ccc1F` [Example 41, (S)-N-(8-cyano-5-methyl-4-oxo-2,3,4,5-tetrahydro-benzo[b][1,4]oxazepin-3-yl)-6-(2,5-difluorophenyl)-5-methylpicolinamide], the IC50 is 594 nM. The same measure for `Cc1cnc(C(=O)N[C@H]2COc3cc(C#N)ccc3N(C)C2=O)nc1-c1ccccc1F` [Example 42, (S)-N-(8-cyano-5-methyl-4-oxo-2,3,4,5-tetrahydro-benzo[b][1,4]oxazepin-3-yl)-4-(2-fluorophenyl)-5-methylpyrimidine-2-carboxamide]: 19.4 nM; for `Cc1cnc(C(=O)N[C@H]2COc3cc(C#N)ccc3N(C)C2=O)nc1C1CCCOC1` (stereo partly drawn) [Example 43, N-((S)-8-cyano-5-methyl-4-oxo-2,3,4,5-tetrahydro-benzo[b][1,4]oxazepin-3-yl)-5-methyl-4-(tetrahydro-2H-pyran-3-yl)pyrimidine-2-carboxamide]: 154 nM. As for `Cc1cnc(C(=O)N[C@H]2COc3cc(C#N)ccc3N(C)C2=O)nc1N1CC2CCC1C2` (stereo partly drawn) [Example 44, 4-(2-azabicyclo[2.2.1]heptan-2-yl)-N-((S)-8-cyano-5-methyl-4-oxo-2,3,4,5-tetrahydro-benzo[b][1,4]oxazepin-3-yl)-5-methylpyrimidine-2-carboxamide], the concentration for half-maximal inhibition (IC50) came out at 789 nM. `Cc1cnc(C(=O)N[C@H]2COc3cccnc3N(C)C2=O)nc1-c1ccccc1F` [Example 45, (S)-4-(2-fluorophenyl)-5-methyl-N-(5-methyl-4-oxo-2,3,4,5-tetrahydropyrido[3,2-b][1,4]oxazepin-3-yl)pyrimidine-2-carboxamide]: the IC50 came out at 10 nM. The same measure for `CN1C(=O)[C@@H](NC(=O)c2ncc(Cl)c(-c3ccc(F)cc3F)n2)COc2ccccc21` [Example 46, (S)-5-chloro-4-(2,4-difluorophenyl)-N-(5-methyl-4-oxo-2,3,4,5-tetrahydrobenzo[b]-[1,4]oxazepin-3-yl)pyrimidine-2-carboxamide]: 11.8 nM; for `CN1C(=O)[C@@H](NC(=O)c2ncc(Cl)c(-c3ccccc3F)n2)COc2cccnc21` [Example 47, (S)-5-chloro-4-(2-fluorophenyl)-N-(5-methyl-4-oxo-2,3,4,5-tetrahydro-pyrido[3,2-b][1,4]oxazepin-3-yl)pyrimidine-2-carboxamide]: 29.8 nM. Take `CN1C(=O)[C@@H](NC(=O)c2ncc(Cl)c(-c3cccc(F)c3)n2)COc2cccnc21` [Example 48, (S)-5-chloro-4-(3-fluorophenyl)-N-(5-methyl-4-oxo-2,3,4,5-tetrahydro-pyrido[3,2-b][1,4]oxazepin-3-yl)pyrimidine-2-carboxamide]: the IC50 was found to be 13.2 nM. As for `CN1C(=O)[C@@H](NC(=O)c2ncc(Cl)c(-c3ccc(F)cc3)n2)COc2cccnc21` [Example 49, (S)-5-chloro-4-(4-fluorophenyl)-N-(5-methyl-4-oxo-2,3,4,5-tetrahydro-pyrido[3,2-b][1,4]oxazepin-3-yl)pyrimidine-2-carboxamide], the IC50 was 8.35 nM. Consider `CN1C(=O)[C@@H](NC(=O)c2ncc(Cl)c(-c3ccc(F)cc3F)n2)COc2cccnc21` [Example 50, (S)-5-chloro-4-(2,4-difluorophenyl)-N-(5-methyl-4-oxo-2,3,4,5-tetrahydro-pyrido[3,2-b][1,4]oxazepin-3-yl)pyrimidine-2-carboxamide], for which the IC50 came to 9.29 nM. Turning to `CN1C(=O)[C@@H](NC(=O)c2ncc(Cl)c(-c3cc(F)ccc3F)n2)COc2cccnc21` [Example 51, (S)-5-chloro-4-(2,5-difluorophenyl)-N-(5-methyl-4-oxo-2,3,4,5-tetrahydro-pyrido[3,2-b][1,4]oxazepin-3-yl)pyrimidine-2-carboxamide], the IC50 stood at 10.6 nM.

(Values after US12565490B2, “Inhibitors of Receptor Interacting Protein Kinase I for the treatment of disease” (Board of Regents, The University of Texas System, priority 2020, dated 2026).)
